Assay results published in patent US20230270804A1, “ANTI-HYPERCHOLESTEROLEMIA COMPOSITION AND A METHOD OF MANUFACTURING THE SAME” (NBI BIOSCIENCES PRIVATE LIMITED, priority 2020, published 2023).

Key:
[1] = system: Creatine phosphokinase (CPK), Lactate dehydrogenase (LDH), SGOT and SGPT; assay: Prophylactic study: CPK, LDH, SGOT, SGPT; assay type: in vivo, Wistar strain albino rats
Protocol: 1.5-2 ml blood sample was taken from retino-orbital chamber in vials for biochemical estimations at every 15 days. Investigations performed included detailed Total Cholesterol—TC (mg/dl), Triglyceride—TG (mg/dl), High Density Lipoprotein—HDL-C (mg/dl), Low Density Lipoprotein—LDL-C (mg/dl), Very Low-Density Lipoprotein—VLDL (mg/dl), WBC (10^3/u1), RBC (10^6/u1), Hb (g/dl), PCV (%), Reticulocyte (%), Platelet count 10^5/mm^3, Clotting time (Sec), Neutrophils, Lymphocyte, Monocyte and Eosinophil. The estimations were done with Ecoline kits from Erba Mannheim, ERBA diagnostics Mannheml, Germany using Semi Autoanalyzer RX50 of MicroLabs Instruments and COUNCELL21 of Tulip Diagnostics Pvt. Ltd. Lipid peroxidation (Plasma & Liver), HMG Co-Reductase, Creatine phosphokinase (CPK), Lactate dehydrogenase (LDH), SGOT and SGPT were estimated at the end of both the studies using the kits.

[2] = Prophylactic study: HbA1c / blood glucose level; assay type: in vivo, Wistar strain albino rats; conditions: HFD fed groups
[3] = rat, in vivo
Protocol: The prophylactic study which lasted 90 days used 6 rats per group. […] The 6 groups were as follows: • 1. Normal Control • 2. High Fat Diet (HFD) 1 ml 1/d+Normal Diet • 3. High Fat Diet (HFD)+Normal Diet+the composition of the present invention (OD) • 4, High Fat Diet (HFD)+Normal Diet+the composition of the present invention (BD) • 5. […] The body weights were recorded to the nearest gram (g) with proper tare to 0.0000 with the subject at steady state on the weighing machine. The same weighing machine was used for all the subjects. The machine was tested with a known set of weights for any error.
The long-term rise in the electrolyte such as Na and are associated with blood pressure disorders impacting the heart.

[4] = HFD+normal diet, after sacrifice

CC(C)c1c(C(=O)Nc2ccccc2)c(-c2ccccc2)c(-c2ccc(F)cc2)n1CC[C@@H](O)C[C@@H](O)CC(=O)O [Statin, Atorvastatin]
Creatine phosphokinase [1, 4]: 1.33 ± 0.04 U/ml
LDH [1, 4]: 278.50 ± 5.50 U/ml
SGOT [1, 4]: 59.03 ± 1.49 U/ml
SGPT [1, 4]: 55.63 ± 0.51 U/ml
Inhibition in SGPT activity ([1]; prophylactic study, composition twice a day): 20%
Blood glucose level [2]: able to maintain Blood glucose level similar to normal diet group
Sodium and potassium level [3]: enhanced
